Measured values taken from US20100137313A1 (ASTRAZENECA AB, priority 2008, published 2010).

Target: S. pneumoniae Topoisomerase IV ATPase (ParE) (Streptococcus pneumoniae serotype 4, UniProt Q59961)
Assay: S. pneumoniae Topoisomerase IV ATPase inhibition
Type: biochemical
Details: values marked * are an average of two or more data points, read-out: % Inh (13 μM) of S. pneumoniae Topoisomerase IV ATPase
Summary of the method: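 ParE ATPase (1.25 nM) run with 160 μM ATP and 5 μg/ml sheared salmon sperm DNA in Tris pH 8.0, Mg2+, glycerol, DTT, Brij-35. Phosphate released read by malachite green/molybdate absorbance at 650 nm. IC50 from 10 compound concentrations; DMSO (2%) as 0% and EDTA (20 μM) as 100% inhibition.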

Chain of S. pneumoniae Topoisomerase IV ATPase (ParE) (Q59961 whole entry): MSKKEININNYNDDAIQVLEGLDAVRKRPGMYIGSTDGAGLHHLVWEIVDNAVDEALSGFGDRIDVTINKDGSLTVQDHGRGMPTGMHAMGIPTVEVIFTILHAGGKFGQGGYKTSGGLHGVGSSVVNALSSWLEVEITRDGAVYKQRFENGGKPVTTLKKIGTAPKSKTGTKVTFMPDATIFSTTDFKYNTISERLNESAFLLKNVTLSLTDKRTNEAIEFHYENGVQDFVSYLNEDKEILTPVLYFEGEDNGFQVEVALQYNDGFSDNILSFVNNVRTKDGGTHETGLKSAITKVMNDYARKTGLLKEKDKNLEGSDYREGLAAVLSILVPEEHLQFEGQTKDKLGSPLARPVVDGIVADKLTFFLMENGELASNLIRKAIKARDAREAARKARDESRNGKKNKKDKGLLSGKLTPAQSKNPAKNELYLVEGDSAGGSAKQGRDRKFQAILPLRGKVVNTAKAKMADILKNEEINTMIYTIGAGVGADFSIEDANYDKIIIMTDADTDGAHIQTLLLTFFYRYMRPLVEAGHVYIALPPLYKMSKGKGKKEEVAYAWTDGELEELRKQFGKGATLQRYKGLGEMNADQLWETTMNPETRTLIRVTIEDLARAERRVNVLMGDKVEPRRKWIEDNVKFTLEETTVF

| SMILES | inhibition at 13 µM |
| --- | --- |
| CCOC(=O)c1cncc(-c2cnc(Nc3ccc(F)c(Cl)c3)nc2NCCCNC(=O)c2cnc(C)cn2)c1 [Example 141, ethyl 5-(2-(3-chloro-4-fluorophenylamino)-4-(3-(5-methylpyrazine-2-carboxamido)propyl-amino)pyrimidin-5-yl)nicotinate] | 63.3% |
| CCOC(=O)c1cncc(-c2cnc(Nc3ccc(F)c(Cl)c3)nc2N2CCN(C(C)=O)CC2)c1 [Example 142, ethyl 5-(4-(4-acetylpiperazin-1-yl)-2-(3-chloro-4-fluorophenylamino)pyrimidin-5-yl)nicotinate] | 86.2% |
| CCOC(=O)c1cncc(-c2cnc(Nc3ccc(F)c(Cl)c3)nc2NCCCOC)c1 [Example 143, ethyl 5-(2-(3-chloro-4-fluorophenylamino)-4-(3-methoxypropylamino)pyrimidin-5-yl)nicotinate] | 88.6% |
| CCOC(=O)c1cncc(-c2cnc(Nc3ccc(F)c(Cl)c3)nc2N2CCOCC2)c1 [Example 144, ethyl 5-(2-(3-chloro-4-fluorophenylamino)-4-morpholinopyrimidin-5-yl)nicotinate] | 76.4% |
| CCOC(=O)c1cncc(-c2cnc(Nc3ccc(F)c(Cl)c3)nc2NCc2cncn2C)c1 [Example 145, ethyl 5-(2-(3-chloro-4-fluorophenylamino)-4-((1-methyl-1H-imidazol-5-yl)methylamino)pyrimidin-5-yl) nicotinate] | 77.4% |
| CCOC(=O)c1cncc(-c2cnc(Nc3ccc(F)c(Cl)c3)nc2N[C@@H]2CCOC2)c1 [Example 146, (R)-ethyl 5-(2-(3-chloro-4-fluorophenylamino)-4-(tetrahydrofuran-3-ylamino)pyrimidin-5-yl)nicotinate] | 79.7% |
| CCOC(=O)c1cncc(-c2cnc(Nc3ccc(F)c(Cl)c3)nc2N2CCCC2)c1 [Example 147, ethyl 5-(2-(3-chloro-4-fluorophenylamino)-4-(pyrrolidin-1-yl)pyrimidin-5-yl)nicotinate] | 65.4% |
| CCOC(=O)c1cncc(-c2cnc(Nc3ccc(F)c(Cl)c3)nc2NCc2cnn(C)c2)c1 [Example 148, ethyl 5-(2-(3-chloro-4-fluorophenylamino)-4-((1-methyl-1H-pyrazol-4-yl)methylamino)pyrimidin-5-yl)-nicotinate] | 120% |
| CCOC(=O)c1cncc(-c2cnc(Nc3ccc(F)c(Cl)c3)nc2NC(COC)COC)c1 [Example 149, ethyl 5-(2-(3-chloro-4-fluorphenylamino)-4-(1,3-dimethoxypropan-2-ylamino)pyrimidin-5-yl)nicotinate] | 82.2% |
| CCOC(=O)c1cncc(-c2cnc(Nc3ccc(F)c(Cl)c3)nc2N2CCN(CCOC)CC2)c1 [Example 150, ethyl 5-(2-(3-chloro-4-fluorophenylamino)-4-(4-(2-methoxyethyl)piperazin-1-yl)pyrimidin-5-yl)nicotinate] | 53.3% |
| CCOC(=O)c1cncc(-c2cnc(Nc3ccc(F)c(Cl)c3)nc2N2CCN(C)CC2)c1 [Example 151, ethyl 5-(2-(3-chloro-4-fluorophenylamino)-4-(4-methylpiperazin-1-yl)pyrimidin-5-yl)nicotinate] | 50.1% |
| CCOC(=O)c1cncc(-c2cnc(Nc3ccc(F)c(Cl)c3)nc2N2CCCCC2)c1 [Example 152, ethyl 5-(2-(3-chloro-4-fluorophenylamino)-4-(piperidin-1-yl)pyrimidin-5-yl)nicotinate] | 0.54% |
| CCOC(=O)/C=C/c1cccc(-c2cnc(Nc3ccc(F)c(Cl)c3)nc2-n2cnc(Cl)c2Cl)c1 [Example 161, ethyl (2E)-3-(3-{2-[(3-chloro-4-fluorophenyl)amino]-4-(4,5-dichloro-1H-imidazol-1-yl)pyrimidin-5-yl}phenyl)prop-2-enoate] | 74.8% |
| CCOC(=O)/C=C/c1cccc(-c2cnc(Nc3ccc(F)c(Cl)c3)nc2N2CC(C)OC(C)C2)c1 (stereo not drawn) [Example 163, (E)-ethyl 3-(3-(2-(3-chloro-4-fluorophenylamino)-4-(2,6-dimethylmorpholino)pyrimidin-5-yl)phenyl)acrylate] | 55% |
| CCOC(=O)/C=C/c1cccc(-c2cnc(Nc3ccc(F)c(Cl)c3)nc2N2CCN(C(=O)N(C)C)CC2)c1 [Example 164, (E)-ethyl 3-(3-(2-(3-chloro-4-fluorophenylamino)-4-(4-(dimethylcarbamoyl)piperazin-1-yl)pyrimidin-5-yl)phenyl)acrylate] | 47% |
| CCOC(=O)/C=C/c1cccc(-c2cnc(Nc3ccc(F)c(Cl)c3)nc2NCCCNC(=O)c2cnc(C)cn2)c1 [Example 165] | 56.9% |
| CCOC(=O)/C=C/c1cccc(-c2cnc(Nc3ccc(F)c(Cl)c3)nc2N2CCOCC2)c1 [Example 166, (E)-ethyl 3-(3-(2-(3-chloro-4-fluorophenylamino)-4-morpholinopyrimidin-5-yl)phenyl)acrylate] | 37.4% |

| SMILES | inhibition at 13 µM |
| --- | --- |
| CCOC(=O)/C=C/c1cccc(-c2cnc(Nc3ccc(F)c(Cl)c3)nc2NCCCOC)c1 [Example 167, (E)-ethyl 3-(3-(2-(3-chloro-4-fluorophenylamino)-4-(3-methoxypropylamino)pyrimidin-5-yl)phenyl)acrylate] | 31.1% |
| CCOC(=O)/C=C/c1cccc(-c2cnc(Nc3ccc(F)c(Cl)c3)nc2NCc2cnn(C)c2)c1 [Example 168, (E)-ethyl 3-(3-(2-(3-chloro-4-fluorophenylamino)-4-((1-methyl-1H-pyrazol-4-yl)methylamino)pyrimidin-5-yl)phenyl)acrylate] | 66.4% |
| CCOC(=O)/C=C/c1cccc(-c2cnc(Nc3ccc(F)c(Cl)c3)nc2N[C@@H]2CCOC2)c1 [Example 169, (R,E)-ethyl 3-(3-(2-(3-chloro-4-fluorophenylamino)-4-(tetrahydrofuran-3-ylamino)pyrimidin-5-yl)phenyl)acrylate] | 34.2% |
| CCOC(=O)/C=C/c1cccc(-c2cnc(Nc3ccc(F)c(Cl)c3)nc2N2CCN(C)CC2)c1 [Example 170, (E)-ethyl 3-(3-(2-(3-chloro-4-fluorophenylamino)-4-(4-methylpiperazin-1-yl)pyrimidin-5-yl)phenyl)acrylate] | 46% |
| CCOC(=O)/C=C/c1cccc(-c2cnc(Nc3ccc(F)c(Cl)c3)nc2N2CCCCC2)c1 [Example 171, (E)-ethyl 3-(3-(2-(3-chloro-4-fluorophenylamino)-4-(piperidin-1-yl)pyrimidin-5-yl)phenyl)acrylate] | 3.62% |
| CCOC(=O)/C=C/c1cccc(-c2cnc(Nc3ccc(F)c(Cl)c3)nc2NCc2cncn2C)c1 [Example 172, (E)-ethyl 3-(3-(2-(3-chloro-4-fluorophenylamino)-4-((1-methyl-1H-imidazol-5-yl)methylamino)pyrimidin-5-yl)phenyl)acrylate] | -32.8% |
| CCOC(=O)/C=C/c1cccc(-c2cnc(Nc3ccc(F)c(Cl)c3)nc2NC(COC)COC)c1 [Example 173, (E)-ethyl 3-(3-(2-(3-chloro-4-fluorophenylamino)-4-(1,3-dimethoxypropan-2-ylamino)pyrimidin-5-yl)phenyl)acrylate] | 34.7% |
| CCOC(=O)/C=C/c1cccc(-c2cnc(Nc3ccc(F)c(Cl)c3)nc2N2CCN(S(C)(=O)=O)CC2)c1 [Example 174, (E)-ethyl 3-(3-(2-(3-chloro-4-fluorophenylamino)-4-(4-(methylsulfonyl)piper-azin-1-yl)pyrimidin-5-yl)phenyl)acrylate] | 52.1% |
| CCOC(=O)c1cn(CCOC)c2ccc(-c3cnc(Nc4ccc(F)c(Cl)c4)nc3N3CCOCC3)cc2c1=O [Example 175, ethyl 6-(2-(3-chloro-4-fluorophenylamino)-4-morpholinopyrimidin-5-yl)-1-(2-methoxyethyl)-4-oxo-1,4-dihydroquinoline-3-carboxylate] | 80% |
| CCOC(=O)c1cn(CCOC)c2ccc(-c3cnc(Nc4ccc(F)c(Cl)c4)nc3NCCCOC)cc2c1=O [Example 177, ethyl 6-(2-(3-chloro-4-fluorophenylamino)-4-(3-methoxypropylamino)-pyrimidin-5-yl)-1-(2-methoxyethyl)-4-oxo-1,4-dihydroquinoline-3-carboxylate] | 68.9% |
| COCCCNc1nc(Nc2ccc(F)c(Cl)c2)ncc1-c1ccc(C(=O)O)s1 [Example 178, 5-(2-(3-chloro-4-fluorophenylamino)-4-(3-methoxypropylamino)-pyrimidin-5-yl)thiophene-2-carboxylic acid] | 83% |
| COCCCNc1nc(Nc2ccc(F)c(Cl)c2)ncc1-c1ccc(C(C)=O)s1 [Example 179, 1-(5-(2-(3-chloro-4-fluorophenylamino)-4-(3-methoxypropylamino)-pyrimidin-5-yl)thiophen-2-yl)ethanone] | 93.9% |
| COCCCNc1nc(Nc2ccc(F)c(Cl)c2)ncc1-c1ccc2sc(C(=O)OC)cc2c1 [Example 180, methyl 5-(2-(3-chloro-4-fluorophenylamino)-4-(3-methoxypropylamino)-pyrimidin-5-yl)benzo[b]thiopene-2-carboxylate] | -56.9% |
| COCCCNc1nc(Nc2ccc(F)c(Cl)c2)ncc1-c1nc(C(=O)OC)cs1 [Example 212, Methyl 2-(2-(3-chloro-4-fluorophenylamino)-4-(3-methoxypropylamino)pyrimidin-5-yl)thiazole-4-carboxylate] | 14.5% |
| Fc1ccc(Nc2ncc(-c3cncnc3)c(N3CCCCCC3)n2)cc1Cl [Example 213, 4-(azepan-1-yl)-N-(3-chloro-4-fluorophenyl)-5-pyrimidin-5-ylpyrimidin-2-amine] | 55.8% |
| CN(C)CCCNc1nc(Nc2ccc(F)c(Cl)c2)ncc1-c1cncc(C(=O)O)c1 [Example 214, 5-(2-(3-chloro-4-fluorophenylamino)-4-(3-(dimethylamino)propylamino)pyrimidin-5-yl)nicotinic acid] | 101% |
